Test results published in US8952024B2, “Herbicidal pyrimidone derivatives” (E I du Pont de Nemours and Company, priority 2009, dated 2015).

Key:
Assay type in all cases: in vivo
[1] = tested on: naked crabgrass (Digitaria nuda); test: Test D pre-/postemergence plant response
In short: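 Pre + post applications; loam/sand soil; solvent + surfactant vehicle; post-em plants 1- to 4-leaf (2–18 cm); greenhouse 14–21 d; visual score 0 (none) to 100 (full control) vs untreated.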

[2] = tested on: barnyardgrass (Echinochloa crus-galli); test: Test E flooded paddy rice and weeds; settings: applied to paddy water, 21 days, scale 0 to 100
Excerpt: (§1) Three plastic pots (ca. 16-cm diameter) for each application were partially filled with sterilized Tama silt loam soil comprising a 35:50:15 ratio of sand, silt and clay and 2.6% organic matter. Separate plantings for each of the three pots were as follows. Seeds from the U.S. of ducksalad (Heteranthera limosa), sedge (smallflower umbrella sedge, Cyperus difformis), ricefield bulrush (Scirpus mucronatus) and redstem (purple redstem, Ammannia coccinea), were planted into one 16-cm pot for each rate. Seeds from the U.S. of flatsedge (rice flatsedge, Cyperus iria), sprangletop (bearded (i.e. Brdd.) sprangletop, Leptochloa fascicularis), one stand of 9 or 10 water seeded rice seedlings (Oryza sativa cv. ‘Japonica—M202’), and two stands of 3 or 4 transplanted rice seedlings (Oryza sativa cv. ‘Japonica—M202’) were planted into one 16-cm pot for each rate. Seeds from the U.S. of barnyardgrass (Echinochloa crus-galli), late watergrass (Echinochloa oryzicola), early watergrass (Echinochloa oryzoides) and junglerice (Echinochloa colona) were planted into one 16-cm pot for each rate. Plantings were sequential so that crop and weed species were at the 2.0 to 2.5-leaf stage at time of treatment.
(§2) Potted plants were grown in a greenhouse with day/night temperature settings of 30/27° C., and supplemental balanced lighting was provided to maintain a 16-hour photoperiod. Test pots were maintained in the greenhouse until test completion.
(§3) At time of treatment, test pots were flooded to 3 cm above the soil surface, treated by application of test compounds directly to the paddy water, and then maintained at that water depth for the duration of the test. Effects of treatments on rice and weeds were visually evaluated by comparison to untreated controls after 21 days. Plant response ratings, summarized in Table E, are based on a scale of 0 to 100 where 0 is no effect and 100 is complete control. A dash (-) response means no test result.

[3] = tested on: ducksalad (Heteranthera limosa); test: Test E flooded paddy rice and weeds; settings: applied to paddy water, 21 days, scale 0 to 100
Excerpt: as §1, §2, §3

[4] = tested on: early watergrass (Echinochloa oryzoides); test: Test E flooded paddy rice and weeds; settings: applied to paddy water, 21 days, scale 0 to 100
Excerpt: as §1, §2, §3

[5] = tested on: flatsedge (rice flatsedge, Cyperus iria); test: Test E flooded paddy rice and weeds; settings: applied to paddy water, 21 days, scale 0 to 100
Excerpt: as §1, §2, §3

[6] = tested on: junglerice (Echinochloa colona); test: Test E flooded paddy rice and weeds; settings: applied to paddy water, 21 days, scale 0 to 100
Excerpt: as §1, §2, §3

[7] = tested on: late watergrass (Echinochloa oryzicola); test: Test E flooded paddy rice and weeds; settings: applied to paddy water, 21 days, scale 0 to 100
Excerpt: as §1, §2, §3

[8] = tested on: redstem (purple redstem, Ammannia coccinea); test: Test E flooded paddy rice and weeds; settings: applied to paddy water, 21 days, scale 0 to 100
Excerpt: as §1, §2, §3

[9] = tested on: ricefield bulrush (Scirpus mucronatus); test: Test E flooded paddy rice and weeds; settings: applied to paddy water, 21 days, scale 0 to 100
Excerpt: as §1, §2, §3

[10] = tested on: sedge (smallflower umbrella sedge, Cyperus difformis); test: Test E flooded paddy rice and weeds; settings: applied to paddy water, 21 days, scale 0 to 100
Excerpt: as §1, §2, §3

[11] = tested on: transplanted rice seedlings (Oryza sativa cv. ‘Japonica—M202’); test: Test E flooded paddy rice and weeds; settings: applied to paddy water, 21 days, scale 0 to 100
Excerpt: as §1, §2, §3

[12] = tested on: water seeded rice seedlings (Oryza sativa cv. ‘Japonica—M202’); test: Test E flooded paddy rice and weeds; settings: applied to paddy water, 21 days, scale 0 to 100
Excerpt: as §1, §2, §3

[13] = Postemergence, 31 g ai/ha, scale 0 to 100
[14] = Postemergence, 62 g ai/ha, scale 0 to 100 (0 no effect, 100 complete control)
[15] = Postemergence, 125 g ai/ha, scale 0 to 100 (0 no effect, 100 complete control)
[16] = Preemergence, 16 g ai/ha, scale 0 to 100, 0 no effect, 100 complete control
[17] = Preemergence, 31 g ai/ha, scale 0 to 100 (0 no effect, 100 complete control)
[18] = Preemergence, 62 g ai/ha, scale 0 to 100
[19] = Preemergence, 125 g ai/ha, scale 0 to 100

**Q.** Which “Plant response rating, Crabgrass, Naked” value [1, 13] does the source give for `COCCn1c(-c2ccccc2)ncc(C(=O)C2=C(O)CCCC2=O)c1=O` [Compound 85] here?
**A.** 50

**Q.** And the “Plant response rating, Crabgrass, Naked” value [1, 14]?
**A.** 75

**Q.** What about the “Plant response rating, Crabgrass, Naked” value [1, 15] of the same molecule?
**A.** 80

**Q.** And the “Plant response rating, Crabgrass, Naked” value [1, 16]?
**A.** 0

**Q.** And the “Plant response rating, Crabgrass, Naked” value [1, 17]?
**A.** 95

**Q.** What about the “Plant response rating, Crabgrass, Naked” value [1, 18] of the same molecule?
**A.** 95

**Q.** What about the “Plant response rating, Crabgrass, Naked” value [1, 19] of the same molecule?
**A.** 98

**Q.** For `COc1ccc(-n2c(-c3ccccc3)ncc(C(=O)C3=C(O)CCCC3=O)c2=O)cc1OC` [Compound 218], which “Plant response rating, Barnyardgrass, Flood” value ([2]; 32 g ai/ha) is on record?
**A.** 0

**Q.** And the “Plant response rating, Barnyardgrass, Flood” value ([2]; 64 g ai/ha)?
**A.** 0

**Q.** What about the “Plant response rating, Barnyardgrass, Flood” value ([2]; 125 g ai/ha) of the same molecule?
**A.** 30

**Q.** And the “Plant response rating, Barnyardgrass, Flood” value ([2]; 250 g ai/ha)?
**A.** 95

**Q.** And the “Plant response rating, Ducksalad, Flood” value ([3]; 32 g ai/ha)?
**A.** 80

**Q.** And the “Plant response rating, Ducksalad, Flood” value ([3]; 64 g ai/ha)?
**A.** 85

**Q.** What about the “Plant response rating, Ducksalad, Flood” value ([3]; 125 g ai/ha) of the same molecule?
**A.** 95

**Q.** And the “Plant response rating, Ducksalad, Flood” value ([3]; 250 g ai/ha)?
**A.** 100

**Q.** And the “Plant response rating, Watergrass, Early, Flood” value ([4]; 32 g ai/ha)?
**A.** 0

**Q.** What about the “Plant response rating, Watergrass, Early, Flood” value ([4]; 64 g ai/ha) of the same molecule?
**A.** 20

**Q.** And the “Plant response rating, Watergrass, Early, Flood” value ([4]; 125 g ai/ha)?
**A.** 20

**Q.** What about the “Plant response rating, Watergrass, Early, Flood” value ([4]; 250 g ai/ha) of the same molecule?
**A.** 60

**Q.** What about the “Plant response rating, Flatsedge, Rice, Flood” value ([5]; 32 g ai/ha) of the same molecule?
**A.** 75

**Q.** And the “Plant response rating, Flatsedge, Rice, Flood” value ([5]; 64 g ai/ha)?
**A.** 70

**Q.** What about the “Plant response rating, Flatsedge, Rice, Flood” value ([5]; 125 g ai/ha) of the same molecule?
**A.** 70

**Q.** What about the “Plant response rating, Flatsedge, Rice, Flood” value ([5]; 250 g ai/ha) of the same molecule?
**A.** 75

**Q.** What about the “Plant response rating, Junglerice, Flood” value ([6]; 32 g ai/ha) of the same molecule?
**A.** 0

**Q.** And the “Plant response rating, Junglerice, Flood” value ([6]; 64 g ai/ha)?
**A.** 0

**Q.** What about the “Plant response rating, Junglerice, Flood” value ([6]; 125 g ai/ha) of the same molecule?
**A.** 65

**Q.** And the “Plant response rating, Junglerice, Flood” value ([6]; 250 g ai/ha)?
**A.** 100

**Q.** And the “Plant response rating, Watergrass, Late, Flood” value ([7]; 32 g ai/ha)?
**A.** 20

**Q.** What about the “Plant response rating, Watergrass, Late, Flood” value ([7]; 64 g ai/ha) of the same molecule?
**A.** 40

**Q.** And the “Plant response rating, Watergrass, Late, Flood” value ([7]; 125 g ai/ha)?
**A.** 40

**Q.** What about the “Plant response rating, Watergrass, Late, Flood” value ([7]; 250 g ai/ha) of the same molecule?
**A.** 70

**Q.** What about the “Plant response rating, Redstem, Flood” value ([8]; 32 g ai/ha) of the same molecule?
**A.** 65

**Q.** What about the “Plant response rating, Redstem, Flood” value ([8]; 64 g ai/ha) of the same molecule?
**A.** 65

**Q.** And the “Plant response rating, Redstem, Flood” value ([8]; 125 g ai/ha)?
**A.** 75

**Q.** What about the “Plant response rating, Redstem, Flood” value ([8]; 250 g ai/ha) of the same molecule?
**A.** 80

**Q.** What about the “Plant response rating, Bulrush, Ricefield, Flood” value (shortened to “Plant response rating, Bulrush”) ([9]; 32 g ai/ha) of the same molecule?
**A.** 80

**Q.** And the “Plant response rating, Bulrush” value ([9]; 64 g ai/ha)?
**A.** 80

**Q.** What about the “Plant response rating, Bulrush” value ([9]; 125 g ai/ha) of the same molecule?
**A.** 90

**Q.** What about the “Plant response rating, Bulrush” value ([9]; 250 g ai/ha) of the same molecule?
**A.** 100

**Q.** What about the “Plant response rating, Sedge, Umbrella, Flood” value (“Plant response rating, Sedge” for short) ([10]; 32 g ai/ha) of the same molecule?
**A.** 85

**Q.** What about the “Plant response rating, Sedge” value ([10]; 64 g ai/ha) of the same molecule?
**A.** 95

**Q.** And the “Plant response rating, Sedge” value ([10]; 125 g ai/ha)?
**A.** 100

**Q.** What about the “Plant response rating, Sedge” value ([10]; 250 g ai/ha) of the same molecule?
**A.** 100

**Q.** And the “Plant response rating, Rice, Transplanted, Flood” value ([11]; 32 g ai/ha)?
**A.** 0

**Q.** And the “Plant response rating, Rice, Transplanted, Flood” value ([11]; 64 g ai/ha)?
**A.** 0

**Q.** What about the “Plant response rating, Rice, Transplanted, Flood” value ([11]; 125 g ai/ha) of the same molecule?
**A.** 0

**Q.** And the “Plant response rating, Rice, Transplanted, Flood” value ([11]; 250 g ai/ha)?
**A.** 10

**Q.** What about the “Plant response rating, Rice, Water Seeded, Flood” value ([12]; 32 g ai/ha) of the same molecule?
**A.** 15

**Q.** And the “Plant response rating, Rice, Water Seeded, Flood” value ([12]; 64 g ai/ha)?
**A.** 0

**Q.** What about the “Plant response rating, Rice, Water Seeded, Flood” value ([12]; 125 g ai/ha) of the same molecule?
**A.** 20

**Q.** What about the “Plant response rating, Rice, Water Seeded, Flood” value ([12]; 250 g ai/ha) of the same molecule?
**A.** 35

**Q.** For `COCCn1c(-c2cccc(C)c2)ncc(C(=O)C2=C(O)C3CCC(C3)C2=O)c1=O` (centres unmarked) [Compound 233], which “Plant response rating, Crabgrass, Naked” value [1, 13] is on record?
**A.** 50

**Q.** And the “Plant response rating, Crabgrass, Naked” value [1, 14]?
**A.** 60

**Q.** And the “Plant response rating, Crabgrass, Naked” value [1, 15]?
**A.** 70

**Q.** And the “Plant response rating, Crabgrass, Naked” value ([1]; Postemergence, 16 g ai/ha, scale 0 to 100)?
**A.** 30

**Q.** And the “Plant response rating, Crabgrass, Naked” value [1, 16]?
**A.** 0

**Q.** And the “Plant response rating, Crabgrass, Naked” value [1, 17]?
**A.** 0

**Q.** And the “Plant response rating, Crabgrass, Naked” value [1, 18]?
**A.** 65

**Q.** And the “Plant response rating, Crabgrass, Naked” value [1, 19]?
**A.** 65

**Q.** With `COCCn1c(-c2cc(F)cc(F)c2)ncc(C(=O)C2=C(O)C3CCC(C3)C2=O)c1=O` (centres unmarked) [Compound 243, 2-(3,5-difluorophenyl)-5-[(2-hydroxy-4-oxobicyclo[3.2.1]oct-2-en-3-yl)carbonyl]-3-(2-methoxyethyl)-4(3H)-pyrimidinone] as the molecule, how does the “Plant response rating, Crabgrass, Naked” value [1, 18] read?
**A.** 100

**Q.** What about the “Plant response rating, Crabgrass, Naked” value [1, 19] of the same molecule?
**A.** 100

**Q.** What about the “Plant response rating, Crabgrass, Naked” value ([1]; Preemergence, 250 g ai/ha, scale 0 to 100) of the same molecule?
**A.** 100
